Patent US10004701B2, “Methods and compositions for treating infection” (UNIVERSITY OF ROCHESTER, priority 2012, dated 2018)
Where a name gives a salt, the structure may show the parent alone. Read-outs that look alike come from different tables or passages of the source.

Assays:
Assay in all cases: AK assay 384-well format, Prestwick library screening
[1] = test system: P. aeruginosa; format: cell-based, Pseudomonas aeruginosa; settings: 50 μM final drug concentration; for fold induction at 50 µM: Pseudomonas aeruginosa, 3 h
[2] = test system: E. coli; format: cell-based, Escherichia coli; settings: 50 μM final drug concentration; for fold induction at 50 µM: Escherichia coli, 3 h
[3] = test system: K. pneumoniae; format: cell-based, Klebsiella pneumoniae; settings: 50 μM final drug concentration; for fold induction at 50 µM: Klebsiella pneumoniae, 3 h
[4] = test system: A. baumannii strain 98-37-09; format: cell-based, Acinetobacter baumannii; settings: 50 μM final drug concentration; for fold induction at 50 µM: Acinetobacter baumannii, 983709, 3 h
[5] = test system: E. cloacae; format: cell-based, Enterobacter cloacae; settings: 50 μM final drug concentration; for fold induction at 50 µM: Enterobacter cloacae, 3 h
[6] = test system: S. aureus strain USA300-0114; format: cell-based, Staphylococcus aureus; settings: 50 μM final drug concentration; for fold induction at 50 µM: Staphylococcus aureus, USA300, 3 h
[7] = test system: E. faecium; format: cell-based, Enterococcus faecium; settings: 50 μM final drug concentration; for fold induction at 50 µM: Enterococcus faecium, 3 h
[8] = planktonic P. aeruginosa, positive cutoff 3-fold increase, read-out: AK-based Prestwick library screening result, P. aeruginosa (fold increase in extracellular AK activity)
[9] = planktonic E. coli, positive cutoff 3-fold increase, read-out: AK-based Prestwick library screening result, E. coli (fold increase in extracellular AK activity)
[10] = planktonic K. pneumoniae, positive cutoff 3-fold increase, read-out: AK-based Prestwick library screening result, K. pneumoniae (fold increase in extracellular AK activity)
[11] = planktonic A. baumannii, positive cutoff 3-fold increase, read-out: AK-based Prestwick library screening result, A. baumannii (fold increase in extracellular AK activity)
[12] = planktonic E. cloacae, positive cutoff 3-fold increase, read-out: AK-based Prestwick library screening result, E. cloacae (fold increase in extracellular AK activity)
[13] = planktonic S. aureus, positive cutoff 3-fold increase, read-out: AK-based Prestwick library screening result, S. aureus (fold increase in extracellular AK activity)
[14] = planktonic E. faecium, positive cutoff 3-fold increase, read-out: AK-based Prestwick library screening result, E. faecium (fold increase in extracellular AK activity)
[15] = 384-well format, cutoff for positive-scoring molecules 3-fold increase, read-out: AK-based Prestwick Library Screening Results, P. aeruginosa (increase in extracellular AK activity)
[16] = 384-well format, cutoff for positive-scoring molecules 3-fold increase, read-out: AK-based Prestwick Library Screening Results, E. coli (increase in extracellular AK activity)
[17] = 384-well format, cutoff for positive-scoring molecules 3-fold increase, read-out: AK-based Prestwick Library Screening Results, K. pneumoniae (increase in extracellular AK activity)
[18] = 384-well format, cutoff for positive-scoring molecules 3-fold increase, read-out: AK-based Prestwick Library Screening Results, A. baumannii (increase in extracellular AK activity)
[19] = 384-well format, cutoff for positive-scoring molecules 3-fold increase, read-out: AK-based Prestwick Library Screening Results, E. cloacae (increase in extracellular AK activity)
[20] = 384-well format, cutoff for positive-scoring molecules 3-fold increase, read-out: AK-based Prestwick Library Screening Results, S. aureus (increase in extracellular AK activity)
[21] = 384-well format, cutoff for positive-scoring molecules 3-fold increase, read-out: AK-based Prestwick Library Screening Results, E. faecium (increase in extracellular AK activity)

`Cc1c(OCC(F)(F)F)ccnc1C[S+]([O-])c1nc2ccccc2[nH]1` (stereo not shown) [Lansoprazole] was tested, and the fold induction at 50 µM [1, 8] was 0.7, the fold induction at 50 µM [2, 9] was 0.6 and the fold induction at 50 µM [3, 10] was 0.5. It also gave a fold induction at 50 µM [4, 11] of 0.6, a fold induction at 50 µM [5, 12] of 1 and a fold induction at 50 µM [6, 13] of 0.2. It also gave a fold induction at 50 µM [7, 14] of 0.6.

`CC[C@@H](C(=O)[C@@H](C)[C@@H](O)[C@H](C)CCc1ccc(C)c(O)c1C(=O)O)[C@H]1O[C@](CC)([C@H]2CC[C@](O)(CC)[C@H](C)O2)C[C@@H]1C` [Lasalocid sodium salt] was tested, and the fold induction at 50 µM ([1]; planktonic, cutoff for positive-scoring molecules 3-fold increase, read-out: AK-based Prestwick Library Screening Results, P. aeruginosa (fold increase in extracellular AK activity)) was 0.7, the fold induction at 50 µM ([2]; planktonic, cutoff for positive-scoring molecules 3-fold increase, read-out: AK-based Prestwick Library Screening Results, E. coli (fold increase in extracellular AK activity)) was 1 and the fold induction at 50 µM ([3]; planktonic, cutoff for positive-scoring molecules 3-fold increase, read-out: AK-based Prestwick Library Screening Results, K. pneumoniae (fold increase in extracellular AK activity)) was 0.7. It also gave a fold induction at 50 µM ([4]; planktonic, cutoff for positive-scoring molecules 3-fold increase, read-out: AK-based Prestwick Library Screening Results, A. baumannii (fold increase in extracellular AK activity)) of 2.6, a fold induction at 50 µM ([5]; planktonic, cutoff for positive-scoring molecules 3-fold increase, read-out: AK-based Prestwick Library Screening Results, E. cloacae (fold increase in extracellular AK activity)) of 1 and a fold induction at 50 µM ([6]; planktonic, cutoff for positive-scoring molecules 3-fold increase, read-out: AK-based Prestwick Library Screening Results, S. aureus (fold increase in extracellular AK activity)) of 3.7. It also gave a fold induction at 50 µM ([7]; planktonic, cutoff for positive-scoring molecules 3-fold increase, read-out: AK-based Prestwick Library Screening Results, E. faecium (fold increase in extracellular AK activity)) of 0.9.

For `Cc1oncc1C(=O)Nc1ccc(C(F)(F)F)cc1` [Leflunomide], the fold induction at 50 µM ([1]; cutoff for positive-scoring molecules 3-fold increase, read-out: AK-based Prestwick Library Screening Results, P. aeruginosa (fold increase in extracellular AK activity)) was 0.8, the fold induction at 50 µM ([2]; cutoff for positive-scoring molecules 3-fold increase, read-out: AK-based Prestwick Library Screening Results, E. coli (fold increase in extracellular AK activity)) was 0.8 and the fold induction at 50 µM ([3]; cutoff for positive-scoring molecules 3-fold increase, read-out: AK-based Prestwick Library Screening Results, K. pneumoniae (fold increase in extracellular AK activity)) was 0.6. For the same molecule, the fold induction at 50 µM ([4]; cutoff for positive-scoring molecules 3-fold increase, read-out: AK-based Prestwick Library Screening Results, A. baumannii (fold increase in extracellular AK activity)) was 0.8, the fold induction at 50 µM ([5]; cutoff for positive-scoring molecules 3-fold increase, read-out: AK-based Prestwick Library Screening Results, E. cloacae (fold increase in extracellular AK activity)) was 1.5 and the fold induction at 50 µM ([6]; cutoff for positive-scoring molecules 3-fold increase, read-out: AK-based Prestwick Library Screening Results, S. aureus (fold increase in extracellular AK activity)) was 0.6. The fold induction at 50 µM ([7]; cutoff for positive-scoring molecules 3-fold increase, read-out: AK-based Prestwick Library Screening Results, E. faecium (fold increase in extracellular AK activity)) was 0.7.

Molecule `N#Cc1ccc(C(c2ccc(C#N)cc2)n2cncn2)cc1` [Letrozole] has a fold induction at 50 µM [1, 8] of 1, a fold induction at 50 µM [2, 9] of 1.2 and a fold induction at 50 µM [3, 10] of 1.1. It also gave a fold induction at 50 µM [4, 11] of 1.3, a fold induction at 50 µM [5, 12] of 1.4 and a fold induction at 50 µM [6, 13] of 1.2. For the same molecule, the fold induction at 50 µM [7, 14] was 1.

With `CC1=CC(=O)C2=C(C)CC[C@@H]3[C@H](OC(=O)[C@H]3C)[C@@H]12` [Leucomisine] the “AK-based Prestwick library screening result, P. aeruginosa (fold increase in extracellular AK activity)” value ([1]; planktonic P. aeruginosa, positive cutoff 3-fold increase) was 1.1, the “AK-based Prestwick library screening result, E. coli (fold increase in extracellular AK activity)” value ([2]; planktonic E. coli, […]) was 1.3 and the “AK-based Prestwick library screening result, K. pneumoniae (fold increase in extracellular AK activity)” value ([3]; planktonic K. pneumoniae, positive cutoff 3-fold increase) was 1.0. The “AK-based Prestwick library screening result, A. baumannii (fold increase in extracellular AK activity)” value ([4]; planktonic A. baumannii, positive cutoff 3-fold increase) was 1.0, the “AK-based Prestwick library screening result, E. cloacae (fold increase in extracellular AK activity)” value ([5]; planktonic E. cloacae, positive cutoff 3-fold increase) was 1.6 and the “AK-based Prestwick library screening result, S. aureus (fold increase in extracellular AK activity)” value ([6]; planktonic S. aureus, positive cutoff 3-fold increase) was 0.9. For the same molecule, the “AK-based Prestwick library screening result, E. faecium (fold increase in extracellular AK activity)” value ([7]; planktonic E. faecium, positive cutoff 3-fold increase) was 1.1.

In the case of `c1ccc([C@H]2CN3CCSC3=N2)cc1` [Levamisole hydrochloride], the fold induction at 50 µM [1, 15] is reported as 1, the fold induction at 50 µM [2, 16] is reported as 1 and the fold induction at 50 µM [3, 17] is reported as 0.7. The fold induction at 50 µM [4, 18] was 1.1, the fold induction at 50 µM [5, 19] was 1 and the fold induction at 50 µM [6, 20] was 0.9. It also gave a fold induction at 50 µM [7, 21] of 1.

`C[C@@H]1CN([C@H]2CC[C@](C#N)(c3ccc(F)cc3)CC2)CC[C@]1(C(=O)O)c1ccccc1` [Levocabastine hydrochloride] was tested, and the fold induction at 50 µM [1, 8] was 1, the fold induction at 50 µM [2, 9] was 1.1 and the fold induction at 50 µM [3, 10] was 1.1. The fold induction at 50 µM [4, 11] was 1.2, the fold induction at 50 µM [5, 12] was 1.6 and the fold induction at 50 µM [6, 13] was 1.1. For the same molecule, the fold induction at 50 µM [7, 14] was 1.

For `N[C@@H](Cc1ccc(O)c(O)c1)C(=O)O` [Levodopa], the fold induction at 50 µM [1, 15] was 0.5, the fold induction at 50 µM [2, 16] was 0.6 and the fold induction at 50 µM [3, 17] was 0.6. The fold induction at 50 µM [4, 18] was 0.7, the fold induction at 50 µM [5, 19] was 0.8 and the fold induction at 50 µM [6, 20] was 0.5. The fold induction at 50 µM [7, 21] was 0.8.

`C[C@H](N)[C@H](O)c1ccc(O)c(O)c1` [Levonordefrin] gave a fold induction at 50 µM ([1]; planktonic, […], read-out: AK-based Prestwick Library Screening Results, P. aeruginosa (fold increase in extracellular AK activity)) of 0.7, a fold induction at 50 µM ([2]; planktonic, […], read-out: AK-based Prestwick Library Screening Results, E. coli (fold increase in extracellular AK activity)) of 0.7 and a fold induction at 50 µM ([3]; planktonic, […], read-out: AK-based Prestwick Library Screening Results, K. pneumoniae (fold increase in extracellular AK activity)) of 0.8. It also gave a fold induction at 50 µM ([4]; planktonic, […], read-out: AK-based Prestwick Library Screening Results, A. baumannii (fold increase in extracellular AK activity)) of 0.8, a fold induction at 50 µM ([5]; planktonic, […], read-out: AK-based Prestwick Library Screening Results, E. cloacae (fold increase in extracellular AK activity)) of 0.7 and a fold induction at 50 µM ([6]; planktonic, […], read-out: AK-based Prestwick Library Screening Results, S. aureus (fold increase in extracellular AK activity)) of 0.6. The fold induction at 50 µM ([7]; planktonic, […], read-out: AK-based Prestwick Library Screening Results, E. faecium (fold increase in extracellular AK activity)) was 1.

In the case of `CCC(=O)O[C@@](Cc1ccccc1)(c1ccccc1)[C@@H](C)CN(C)C` [Levopropoxyphene napsylate], the fold induction at 50 µM ([1]; […], read-out: AK-based Prestwick Library Screening Results, P. aeruginosa (fold increase in extracellular AK activity)) is reported as 0.7, the fold induction at 50 µM ([2]; […], read-out: AK-based Prestwick Library Screening Results, E. coli (fold increase in extracellular AK activity)) is reported as 0.6 and the fold induction at 50 µM ([3]; […], read-out: AK-based Prestwick Library Screening Results, K. pneumoniae (fold increase in extracellular AK activity)) is reported as 0.6. The fold induction at 50 µM ([4]; […], read-out: AK-based Prestwick Library Screening Results, A. baumannii (fold increase in extracellular AK activity)) was 0.7, the fold induction at 50 µM ([5]; […], read-out: AK-based Prestwick Library Screening Results, E. cloacae (fold increase in extracellular AK activity)) was 0.7 and the fold induction at 50 µM ([6]; […], read-out: AK-based Prestwick Library Screening Results, S. aureus (fold increase in extracellular AK activity)) was 0.6. The fold induction at 50 µM ([7]; […], read-out: AK-based Prestwick Library Screening Results, E. faecium (fold increase in extracellular AK activity)) was 1.
